Common to all, as to assay: Bliss excess, mean over the matrix (fraction); higher = more synergy
In experiment [1] the test system is CML-T1 (Chronic Myelogenous Leukemia). Put shortly:
(§1)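 After 24 hours at 37°C and 5% CO2 in 1536-well plates, cells in DMEM/F12 or RPMI plus 10% FBS received two-drug dose matrices for 72 hours. Viability came from CellTiter-Glo 2.0 luminescence and was scaled as inhibition, anchored at 0 by vehicle wells and at 1 by blank wells. Combination Emax is taken as the second-highest inhibition in the matrix, and Bliss excess as the observed combination effect less EA + EB − EA·EB, with EA and EB the single-agent effects.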

Experiment [2] concerns EB-3 (Burkitt's Lymphoma). Put shortly:
as §1

Experiment [3] deals with Calu-6 (Non-Small Cell Lung Carcinoma). Put shortly:
as §1

Experiment [4] relates to FLO-1 (Esophageal Adenocarcinoma). In a few lines: as §1
In experiment [5] the test system is BALL-1 (B-Lymphoblastic Leukemia). In a few lines:
as §1

In experiment [6] the test system is KYSE-70 (Esophageal Squamous Cell Carcinoma). Put shortly:
as §1

Experiment [7] concerns LOUCY (T-Lymphoblastic Leukemia). Put shortly:
as §1

Experiment [8] deals with NCI-H196 (Small Cell Lung Carcinoma). In a few lines: as §1
For experiment [9], the system named is Becker (Low Grade Glioma). In a few lines: as §1
Experiment [10] concerns NCI-H1623 (Lung Adenocarcinoma). In a few lines:
as §1

Experiment [11] deals with NCI-H1755 (Lung Adenocarcinoma). Put shortly: as §1
Experiment [12] has as its system Caov-3 (Ovarian Carcinoma). Put shortly: as §1
The subject of experiment [13] is NCI-H1563 (Lung Adenocarcinoma). Put shortly:
as §1

The test system of a further experiment is ES-2 (Ovarian Carcinoma). In a few lines:
as §1

For experiment [14], the system named is RERF-LC-KJ (Lung Adenocarcinoma). Put shortly: as §1
In experiment [15] the test system is SW684 (Other Solid Carcinomas). Put shortly:
as §1

In experiment [16] the test system is LAMA-84 (Chronic Myelogenous Leukemia). Put shortly: as §1
The test system of experiment [17] is SJRH30 (Rhabdomyosarcoma). In a few lines:
as §1

The test system of experiment [18] is NCI-H810 (Non-Small Cell Lung Carcinoma). Put shortly:
as §1

For experiment [19], the system named is AN3-CA (Endometrial Carcinoma). Put shortly: as §1

Our source for the Bliss excess values is the supplement of paper PMC11061612.

SMILES strings stand for the structures.

Consider `CN(C)CCCOc1ccc(-c2ccc3ncc4c(c3c2)n(C2CCOCC2)c(=O)n4C)cn1` [AZD0156] + C=CCn1c(=O)c2cnc(Nc3ccc(N4CCN(C)CC4)cc3)nc2n1-c1cccc(C(C)(C)O)n1 [AZD1775] (first compound max 1 µM, partner max 1 µM), for which the Bliss excess was -0.0271 in experiment [1]; -0.0289 in [2]; -0.0479 in [3]; 0.0285 in [4]; 0.0118 in [5]; -0.0531 in experiment [6]. Further, the Bliss excess in experiment [7] is -0.0123; in experiment [8], -0.0791; in experiment [9], -0.0409; in [10] it was -0.065; in [11], -0.0462; in experiment [12] it was -0.0434. For the same compound, the Bliss excess in experiment [13] is -0.0549; with ES-2 (Ovarian Carcinoma) it was -0.0249; in experiment [14] it was -0.0193; in experiment [15] it was -0.076; in experiment [16] it was -0.037; in experiment [17], -0.0467. The Bliss excess in [18] was -0.0519; in experiment [19], -0.0041.
Regarding `CN(C)CCCOc1ccc(-c2ccc3ncc4c(c3c2)n(C2CCOCC2)c(=O)n4C)cn1` [AZD0156] + CCN(CCO)CCCOc1ccc2c(Nc3cc(CC(=O)Nc4cccc(F)c4)[nH]n3)ncnc2c1 [AZD2811] (first compound max 1 µM, 7x7, partner max 1 µM), the Bliss excess in [1] is 0.0352; in experiment [2] it was 0.0304; in [3], -0.0112; in [4], -0.0376; in [5] it was 0.171; in [6], 0.0006. In addition, the Bliss excess in experiment [7] is -0.0646; in [8] it was -0.05; in experiment [9], -0.0293; in [10], -0.0321; in experiment [11], -0.0132; in experiment [12], -0.0478. Besides, the Bliss excess was -0.006 in [13]; -0.0163 in the experiment on ES-2 (Ovarian Carcinoma); -0.004 in experiment [14]; -0.0583 in experiment [15]; -0.021 in experiment [16]; 0.0035 in experiment [17]. The values for the Bliss excess in experiment [18] and in experiment [19] were 0.0302 and -0.0019, respectively.
On to `CN(C)CCCOc1ccc(-c2ccc3ncc4c(c3c2)n(C2CCOCC2)c(=O)n4C)cn1` [AZD0156] + C[C@@H]1COCCN1C2=NC(=NC(=C2)C3(CC3)[S@](=N)(=O)C)C4=C5C=CNC5=NC=C4 [AZD6738] (first compound max 1 µM, 7x7, partner max 10 µM), for which the Bliss excess in experiment [1] was -0.0095; in experiment [2] it was -0.0035; in [3], -0.0139; in [4], 0.0005; in experiment [5], 0.0274; in experiment [6], 0.0033. The Bliss excess in [7] is 0.0196; in [8] it was -0.0414; in [9] it was -0.0248; in [10] it was -0.0236; in [11] it was -0.0249; in [12], -0.026. Also, the Bliss excess in [13] is -0.0063; in the experiment on ES-2 (Ovarian Carcinoma) it was -0.0217; in [14], 0.0452; in [15], -0.0526; in experiment [16] it was 0.0048; in experiment [17], 0.0408. Further, the Bliss excess in [18] was -0.0082; in experiment [19] it was -0.0226.
For `C=CCn1c(=O)c2cnc(Nc3ccc(N4CCN(C)CC4)cc3)nc2n1-c1cccc(C(C)(C)O)n1` [AZD1775] + C[C@@H]1COCCN1C2=NC(=NC(=C2)C3(CC3)[S@](=N)(=O)C)C4=C5C=CNC5=NC=C4 [AZD6738] (first compound max 1 µM, partner max 10 µM), the Bliss excess in experiment [1] is 0.0296; in [2] it was 0.0002; in experiment [4] it was -0.0531; in [5] it was 0.0441; in experiment [6] it was 0.0329; in experiment [7], 0.025. Besides, the Bliss excess in experiment [8] was -0.0093; in experiment [9] it was 0.0428; in experiment [10], 0.0057; in experiment [11], -0.0276; in experiment [12] it was -0.025; in [13], -0.0303. Further, the Bliss excess with ES-2 (Ovarian Carcinoma) was 0.0105; in [14], -0.0151; in [15], -0.0662; in experiment [16] it was 0.0054; in experiment [17] it was 0.0467; in [18], 0.0223. Moreover, in [19], the Bliss excess was -0.0159.
Regarding `C=CCn1c(=O)c2cnc(Nc3ccc(N4CCN(C)CC4)cc3)nc2n1-c1cccc(C(C)(C)O)n1` [AZD1775] + O=C(c1cc(Cc2n[nH]c(=O)c3ccccc23)ccc1F)N1CCN(C(=O)C2CC2)CC1 [Olaparib] (first compound max 1 µM, partner max 10 µM), the Bliss excess in [1] is 0.0213; in [2], -0.0426; in [3] it was -0.0421; in [4] it was -0.0673; in [5], 0.0054; in experiment [6], -0.0188. Moreover, the Bliss excess is 0.0492 in [7]; -0.0552 in experiment [8]; -0.0254 in experiment [9]; -0.0233 in experiment [10]; -0.0291 in experiment [11]; -0.0396 in experiment [12]. For the same compound, the Bliss excess in [13] is -0.0288; in the experiment on ES-2 (Ovarian Carcinoma), -0.0517; in experiment [14], -0.035; in experiment [15], -0.0689; in [16] it was -0.0086; in experiment [17], -0.0057. The Bliss excess is -0.038 in experiment [18] and 0.0003 in experiment [19].
In the case of `CCN(CCO)CCCOc1ccc2c(Nc3cc(CC(=O)Nc4cccc(F)c4)[nH]n3)ncnc2c1` [AZD2811] + C=CCn1c(=O)c2cnc(Nc3ccc(N4CCN(C)CC4)cc3)nc2n1-c1cccc(C(C)(C)O)n1 [AZD1775] (first compound max 1 µM, partner max 1 µM), the Bliss excess in [1] is 0.0392; in experiment [2], -0.071; in [3] it was -0.0028; in experiment [4], -0.0162; in [5], 0.0612; in experiment [6] it was -0.0449. For the same compound, the Bliss excess in experiment [7] is -0.019; in experiment [8], -0.0371; in experiment [9], -0.0465; in experiment [10], 0.009; in experiment [11] it was -0.0428; in experiment [12] it was -0.0603. The Bliss excess in experiment [13] was 0.001; in the experiment with ES-2 (Ovarian Carcinoma), -0.0111; in experiment [14], 0.0515; in [15], -0.0454; in [16] it was 0.0026; in experiment [17] it was 0.0089. Further, the Bliss excess is -0.0022 in experiment [18] and 0.0276 in [19].
Turning to `CCN(CCO)CCCOc1ccc2c(Nc3cc(CC(=O)Nc4cccc(F)c4)[nH]n3)ncnc2c1` [AZD2811] + C[C@@H]1COCCN1C2=NC(=NC(=C2)C3(CC3)[S@](=N)(=O)C)C4=C5C=CNC5=NC=C4 [AZD6738] (first compound max 1 µM, 7x7, partner max 10 µM), the Bliss excess is 0.0199 in [1]; -0.0835 in [2]; -0.0382 in experiment [3]; -0.0611 in [4]; 0.0288 in experiment [5]; -0.0383 in [6]. Besides, the Bliss excess in experiment [7] was -0.0518; in experiment [8], -0.0655; in experiment [9] it was -0.0343; in [10], -0.0271; in [11] it was -0.0621; in experiment [12] it was -0.0747. Also, the Bliss excess in experiment [13] was -0.0114; with ES-2 (Ovarian Carcinoma) it was -0.0445; in [14], -0.0512; in [15], -0.073; in [16] it was -0.0175; in experiment [17] it was -0.0079. Further, the Bliss excess was -0.0764 in [18] and -0.0315 in [19].
